Results on 29 compounds are retold here after patent publication US10501449B2 (priority 2018, dated 2019).

This experiment deals with hROMK (human Kir1.1) (Homo sapiens (Human), UniProt P48048). Description: cell-based. As to conditions: CHO T-Rex hROMK stable cell line; thallium flux; 10-point concentration response curve; read-out: Human ROMK Th Flux IC50.
Sequence of hROMK (human Kir1.1) (P48048 whole entry): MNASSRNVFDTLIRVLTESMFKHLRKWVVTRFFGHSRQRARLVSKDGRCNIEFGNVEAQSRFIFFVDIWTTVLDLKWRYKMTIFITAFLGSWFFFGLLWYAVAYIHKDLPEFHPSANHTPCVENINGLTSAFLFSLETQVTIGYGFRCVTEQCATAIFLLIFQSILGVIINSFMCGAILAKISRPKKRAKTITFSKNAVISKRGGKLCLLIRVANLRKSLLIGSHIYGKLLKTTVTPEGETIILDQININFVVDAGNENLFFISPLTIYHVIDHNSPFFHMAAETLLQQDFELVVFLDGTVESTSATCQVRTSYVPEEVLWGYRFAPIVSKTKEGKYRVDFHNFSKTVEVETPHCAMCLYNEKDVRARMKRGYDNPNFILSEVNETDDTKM
The term IC50 denotes the concentration needed to halve the response being measured. With `Cc1cc(-n2cc(C(O)CN3CCO[C@H](c4ccc5c(c4C)COC5=O)C3)cn2)ncc1C#N` (single isomer, unassigned) [Example 18-I], the concentration for half-maximal inhibition (IC50) amounted to 870 nM.

In the case of `Cc1cc(N2CC(CN3CCN[C@H](c4ccc5c(c4C)COC5=O)C3)OC2=O)ncc1C#N` (single isomer, unassigned) [Example 160-I], the concentration for half-maximal inhibition (IC50) came out at 130 nM. Take `COc1cc(-n2cc(CN3CC(c4ccc5c(c4C)COC5=O)NC(C(C)O)C3)cn2)ncc1C#N` (single isomer, unassigned) [Example 204-I, 6-(4-((3-(1-hydroxyethyl)-5-(4-methyl-1-oxo-1,3-dihydroisobenzofuran-5-yl)piperazin-1-yl)methyl)-1H-pyrazol-1-yl)-4-methoxynicotinonitrile]: the IC50 is 220 nM.

`Cc1cc(-n2cc(CN3CC(F)C(c4ccc5c(c4C)COC5=O)C3)cn2)ncc1C#N` (single isomer, unassigned) [Example 212-II, 6-(4-((3-fluoro-4-(4-methyl-1-oxo-1,3-dihydroisobenzofuran-5-yl)pyrrolidin-1-yl)methyl)-1H-pyrazol-1-yl)-4-methylnicotinonitrile]: the IC50 is 97 nM.

On to `Cc1cc(-n2cc(CN3CC(c4ccc5c(c4C)COC5=O)NC(C(C)(C)O)C3)cn2)ncc1C#N` (single isomer, unassigned) [Example 213-I, 6-(4-((3-(2-hydroxypropan-2-yl)-5-(4-methyl-1-oxo-1,3-dihydroisobenzofuran-5-yl)piperazin-1-yl)methyl)-1H-pyrazol-1-yl)-4-methynicotinonitrile], for which the half-inhibitory concentration (IC50) was determined as 1200 nM. With `CC(=O)NC1CCN(Cc2cnn(-c3cc(C)c(C#N)cn3)c2)CC1c1ccc2c(c1C)COC2=O` (single isomer, unassigned) [Example 248-I, N-(1-((1-(5-cyano-4-methylpyridin-2-yl)-1H-pyrazol-4-yl)methyl)-3-(4-methyl-1-oxo-1,3-dihydroisobenzofuran-5-yl)piperidin-4-yl)acetamide], the IC50 was determined as 1500 nM. As to `CC(=O)NC1CC(c2ccc3c(c2C)COC3=O)CN(Cc2cnn(-c3cc(C)c(C#N)cn3)c2)C1` (single isomer, unassigned) [Example 257-I, N-(1-((1-(5-cyano-4-mehtylpyridin-2-yl)-1H-pyrazol-4-yl)methyl)-5-(4-methyl-1-oxo-1,3-dihydroisobenzofuran-5-yl)piperidin-3-yl)acetamide], the IC50 was found to be 1400 nM. As to `CNC(=O)OC1CCN(Cc2cnn(-c3cc(C)c(C#N)cn3)c2)CC1c1ccc2c(c1C)COC2=O` (single isomer, unassigned) [Example 258-I, 1-((1-(5-cyano-4-methylpyridin-2-yl)-1H-pyrazol-4-yl)methyl)-3-(4-methyl-1-oxo-1,3-dihydroisobenzofuran-5-yl)piperidin-4-yl methylcarbamate], the half-maximal inhibitory concentration (IC50) came out at 250 nM. As for `Cc1cc(-c2nnc(CN3CC(c4ccc5c(c4C)COC5=O)NC(C(F)F)C3)o2)ncc1C#N` (single isomer, unassigned) [Example 273-I, 6-(5-((3-(difluoromethyl)-5-(4-methyl-1-oxo-1,3-dihydroisobenzofuran-5-yl)piperazin-1-yl)methyl)-1,3,4-oxadiazol-2-yl)-4-methylnicotinonitrile], the IC50 is 720 nM. With `Cc1cc(-n2cc(CN3CCO[C@@H](c4ccc5c(c4C)COC5=O)C3)cn2)ncc1C#N` [Example 1-II, (S)-4-methyl-6-(4-((2-(4-methyl-1-oxo-1,3-dihydroisobenzofuran-5-yl)morpholino)methyl)-1H-pyrazol-1-yl) nicotinonitrile], the half-inhibitory concentration (IC50) turned out to be 800 nM.

As to `Cc1c(C2CN(Cc3cnn(-c4ccc5oc(=O)n(C)c5c4)c3)CCC2(F)F)ccc2c1COC2=O` (centres unmarked) [Example 4, 5-(4-((4,4-difluoro-3-(4-methyl-1-oxo-1,3-dihydroisobenzofuran-5-yl)piperidin-1-yl)methyl)-1H-pyrazol-1-yl)-3-methylbenzo[d]oxazol-2(3H)-one], the IC50 stood at 640 nM. As to `Cc1cc(-n2cc(CN3CCC(F)(F)C(c4ccc5c(c4C)COC5=O)C3)cn2)ncc1C#N` (centres unmarked) [Example 5, 6-(4-((4,4-difluoro-3-(4-methyl-1-oxo-1,3-dihydroisobenzofuran-5-yl)piperidin-1-yl)methyl)-1H-pyrazol-1-yl)-4-methylnicotinonitrile], the IC50 was 270 nM.

With `Cc1ncc(-n2cc(CN3CCO[C@H](c4ccc5c(c4C)COC5=O)C3)cn2)s1` [Example 7-I, (R)-4-methyl-5-(4-((1-(2-methylthiazol-5-yl)-1H-pyrazol-4-yl)methyl)morpholin-2-yl) isobenzofuran-1(3H)-one], the half-inhibitory concentration (IC50) is 1000 nM. Under `Cc1c([C@@H]2CN(Cc3cnn(-c4cc(C5CC5)c(C#N)cn4)c3)CCO2)ccc2c1COC2=O` [Example 8-I, (R)-4-cyclopropyl-6-(4-((2-(4-methyl-1-oxo-1,3-dihydroisobenzofuran-5-yl)morpholino)methyl)-1H-pyrazol-1-yl)nicotinonitrile] stands 280 nM; under `Cc1cc(-n2cc(CN3C[C@@H](c4ccc5c(c4C)COC5=O)OCC3=O)cn2)ncc1C#N` [Example 10-I, (R)-4-methyl-6-(4-((2-(4-methyl-1-oxo-1,3-dihydroisobenzofuran-5-yl)-5-oxomorpholino)methyl)-1H-pyrazol-1-yl)nicotinonitrile], 620 nM. Regarding `Cc1c([C@@H]2CN(Cc3nnc(-c4ccc(C#N)cn4)o3)CCO2)ccc2c1COC2=O` [Example 12-I, (R)-6-(5-((2-(4-methyl-1-oxo-1,3-dihydroisobenzofuran-5-yl)morpholino)methyl)-1,3,4-oxadiazol-2-yl)nicotinonitrile], the half-maximal inhibitory concentration (IC50) came to 530 nM. On to `Cc1cc(-c2nnc(CN3CCN[C@H](c4ccc5c(c4C)COC5=O)C3)o2)ncc1C#N` [Example 13-I, (R)-4-methyl-6-(5-((3-(4-methyl-1-oxo-1,3-dihydroisobenzofuran-5-yl)piperazin-1-yl)methyl)-1,3,4-oxadiazol-2-yl)nicotinonitrile], for which the 50% inhibitory concentration (IC50) was determined as 110 nM.

In the case of `COc1cc(-c2ccc(CN3C[C@@H](c4ccc5c(c4C)COC5=O)OC3=O)cn2)ncc1C#N` [Example 17-I, (R)-4-methoxy-5′-((5-(4-methyl-1-oxo-1,3-dihydroisobenzofuran-5-yl)-2-oxooxazolidin-3-yl)methyl)-[2,2′-bipyridine]-5-carbonitrile], the 50% inhibitory concentration (IC50) is 900 nM. The value for `Cc1c([C@@H]2CN(Cc3cnc(-c4ccc5oc(=O)n(C)c5c4)s3)CCO2)ccc2c1COC2=O` [Example 19-I, (R)-3-methyl-5-(5-((2-(4-methyl-1-oxo-1,3-dihydroisobenzofuran-5-yl)morpholino)methyl)thiazol-2-yl)benzo[d]oxazol-2(3H)-one] was 180 nM; that for `Cc1c([C@@H]2CN(C(=O)c3cnc(-c4ccc5oc(=O)n(C)c5c4)s3)CCO2)ccc2c1COC2=O` [Example 20-I, (R)-3-methyl-5-(5-(2-(4-methyl-1-oxo-1,3-dihydroisobenzofuran-5-yl)morpholine-4-carbonyl)thiazol-2-yl)benzo[d]oxazol-2(3H)-one] was 490 nM. The value for `COC(=O)N1CCN(Cc2cnn(-c3cc(C)c(C#N)cn3)c2)C[C@H]1c1ccc2c(c1C)COC2=O` [Example 24-I, Methyl (R)-4-((1-(5-cyano-4-methylpyridin-2-yl)-1H-pyrazol-4-yl)methyl)-2-(4-methyl-1-oxo-1,3-dihydroisobenzofuran-5-yl)piperazine-1-carboxylate] was 500 nM; that for `Cc1c([C@@H]2CN(Cc3cn(-c4ccc5oc(=O)n(C)c5c4)cn3)CCO2)ccc2c1COC2=O` [Example 29-I, (R)-3-methyl-5-(4-((2-(4-methyl-1-oxo-1,3-dihydroisobenzofuran-5-yl)morpholino)methyl)-1H-imidazol-1-yl) benzo[d]oxazol-2(3H)-one] was 120 nM. `Cc1cc(-c2nnc(CN3CCO[C@H](c4ccc5c(c4C)COC5=O)C3)o2)ncc1C#N` [Example 30-I, (R)-4-methyl-6-(5-((2-(4-methyl-1-oxo-1,3-dihydroisobenzofuran-5-yl)morpholino)methyl)-1,3,4-oxadiazol-2-yl) nicotinonitrile]: the IC50 came to 260 nM. As to `Cc1cc(-n2cc(CCN3CCO[C@H](c4ccc5c(c4C)COC5=O)C3)cn2)ncc1C#N` [Example 31-I, (R)-4-methyl-6-(4-(2-(2-(4-methyl-1-oxo-1,3-dihydroisobenzofuran-5-yl)morpholino)ethyl)-1H-pyrazol-1-yl) nicotinonitrile], the 50% inhibitory concentration (IC50) came to 190 nM. The value for `Cc1cc(-c2ncc(C(=O)N3CCO[C@H](c4ccc5c(c4C)COC5=O)C3)s2)ncc1C#N` [Example 33-I, (R)-4-methyl-6-(5-(2-(4-methyl-1-oxo-1,3-di-hydroisobenzofuran-5-yl)morpholine-4-carbonyl)thiazol-2-yl) nicotinonitrile] was 690 nM; that for `COc1cc(-c2ncc(C(=O)N3CCO[C@H](c4ccc5c(c4C)COC5=O)C3)s2)ncc1C#N` [Example 34-I, (R)-4-methoxy-6-(5-(2-(4-methyl-1-oxo-1,3-dihydroisobenzofuran-5-yl)morpholine-4-carbonyl)thiazol-2-yl) nicotinonitrile] was 190 nM.

Regarding `Cc1cn(-c2ncc(CN3CCO[C@H](c4ccc5c(c4C)COC5=O)C3)s2)cn1` [Example 36-I, (R)-4-methyl-5-(4-((2-(4-methyl-1H-imidazol-1-yl)thiazol-5-yl)methyl)morpholin-2-yl)iso-benzofuran-1(3H)-one], the IC50 was 680 nM. With `Cc1c([C@@H]2CN(Cc3cnn(-c4ccsc4)c3)CCO2)ccc2c1COC2=O` [Example 38-I, (R)-4-methyl-5-(4-((1-(thiophen-3-yl)-1H-pyrazol-4-yl)methyl)morpholin-2-yl)isobenzo-furan-1(3H)-one], the half-maximal inhibitory concentration (IC50) came to 3400 nM. Turning to `Cc1c([C@@H]2CN(Cc3cnn(-c4cnccn4)c3)CCO2)ccc2c1COC2=O` [Example 39-I, (R)-4-methyl-5-(4-((1-(pyrazin-2-yl)-1H-pyrazol-4-yl)methyl)morpholin-2-yl)isobenzo-furan-1(3H)-one], the IC50 is 770 nM.
